Results taken from PubChem BioAssay (NCI).
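How tested: cells in 96-well plates exposed to compound for 48 hours at five concentrations. GI50 marks 50% less growth. TGI marks complete inhibition of growth.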

Legend:
Assay in all cases: NCI anticancer screen, dose series, 48 h
K-562 leukemia = system: K-562 leukemia
A549 NSCLC = system: A549 NSCLC
UO-31 renal = system: UO-31 renal
A498 renal = system: A498 renal
NCI-H522 lung = system: NCI-H522 lung
ACHN renal = system: ACHN renal
SR leukemia = system: SR leukemia
SF-268 CNS = system: SF-268 CNS
SNB-75 CNS = system: SNB-75 CNS
OVCAR-3 ovarian = system: OVCAR-3 ovarian
M14 melanoma = system: M14 melanoma
MDA-MB-231 breast = system: MDA-MB-231 breast
HCT-116 colon = system: HCT-116 colon
SN12C renal = system: SN12C renal
HS 578T breast = system: HS 578T breast
OVCAR-8 ovarian = system: OVCAR-8 ovarian
HT29 colon = system: HT29 colon
EKVX NSCLC = system: EKVX NSCLC
NCI-H226 lung = system: NCI-H226 lung
BT-549 breast = system: BT-549 breast
HCC-2998 colon = system: HCC-2998 colon
OVCAR-4 ovarian = system: OVCAR-4 ovarian
SW-620 colon = system: SW-620 colon
OVCAR-5 ovarian = system: OVCAR-5 ovarian
NCI/ADR-RES ovarian = system: NCI/ADR-RES ovarian
HOP-92 NSCLC = system: HOP-92 NSCLC
786-0 renal = system: 786-0 renal
SF-295 CNS = system: SF-295 CNS
SK-OV-3 ovarian = system: SK-OV-3 ovarian
HOP-62 NSCLC = system: HOP-62 NSCLC
NCI-H23 lung = system: NCI-H23 lung
TK-10 renal = system: TK-10 renal
T-47D breast = system: T-47D breast
SK-MEL-5 melanoma = system: SK-MEL-5 melanoma
SF-539 CNS = system: SF-539 CNS
HCT-15 colon = system: HCT-15 colon
SK-MEL-28 melanoma = system: SK-MEL-28 melanoma
MALME-3M melanoma = system: MALME-3M melanoma
SK-MEL-2 melanoma = system: SK-MEL-2 melanoma
MDA-MB-435 = system: MDA-MB-435
NCI-H460 lung = system: NCI-H460 lung
MCF7 breast = system: MCF7 breast
UACC-257 melanoma = system: UACC-257 melanoma
DU-145 prostate = system: DU-145 prostate
CAKI-1 renal = system: CAKI-1 renal
UACC-62 melanoma = system: UACC-62 melanoma
LOX IMVI melanoma = system: LOX IMVI melanoma
KM12 colon = system: KM12 colon
IGROV1 ovarian = system: IGROV1 ovarian
COLO 205 colon = system: COLO 205 colon
PC-3 prostate = system: PC-3 prostate
RPMI-8226 leukemia = system: RPMI-8226 leukemia
RXF 393 renal = system: RXF 393 renal
U251 CNS = system: U251 CNS
CCRF-CEM leukemia = system: CCRF-CEM leukemia
SNB-19 CNS = system: SNB-19 CNS
HL-60(TB) leukemia = system: HL-60(TB) leukemia

CCCCCCCCCCCCCCCCCCOc1ccccc1CC(=O)NCC[N+](C)(C)C
GI50 (K-562 leukemia): 3.2 µM
TGI (K-562 leukemia): > 100 µM
GI50 (A549 NSCLC): 4.91 µM
TGI (A549 NSCLC): 51.8 µM
GI50 (UO-31 renal): 17.9 µM
TGI (UO-31 renal): 80.4 µM
GI50 (A498 renal): 9.55 µM
TGI (A498 renal): 49.8 µM
GI50 (NCI-H522 lung): 2.67 µM
TGI (NCI-H522 lung): 8.24 µM
GI50 (ACHN renal): 12.9 µM
TGI (ACHN renal): 49.2 µM
GI50 (SR leukemia): 2.71 µM
TGI (SR leukemia): > 100 µM
GI50 (SF-268 CNS): 3.34 µM
TGI (SF-268 CNS): 39.9 µM
GI50 (SNB-75 CNS): 1.98 µM
TGI (SNB-75 CNS): 8.9 µM
GI50 (OVCAR-3 ovarian): 3.55 µM
TGI (OVCAR-3 ovarian): 50.5 µM
GI50 (M14 melanoma): 3.14 µM
TGI (M14 melanoma): > 100 µM
GI50 (MDA-MB-231 breast): 4.27 µM
TGI (MDA-MB-231 breast): 66.6 µM
GI50 (HCT-116 colon): 7.58 µM
TGI (HCT-116 colon): > 100 µM
GI50 (SN12C renal): 3.67 µM
TGI (SN12C renal): 37.9 µM
GI50 (HS 578T breast): 4.26 µM
TGI (HS 578T breast): > 100 µM
GI50 (OVCAR-8 ovarian): 5.79 µM
TGI (OVCAR-8 ovarian): 41.9 µM
GI50 (HT29 colon): 3.09 µM
TGI (HT29 colon): 26.7 µM
GI50 (EKVX NSCLC): 18 µM
TGI (EKVX NSCLC): 66 µM
GI50 (NCI-H226 lung): 4.4 µM
TGI (NCI-H226 lung): 42.9 µM
GI50 (BT-549 breast): 3.25 µM
TGI (BT-549 breast): > 100 µM
GI50 (HCC-2998 colon): 3.15 µM
TGI (HCC-2998 colon): 21.9 µM
GI50 (OVCAR-4 ovarian): 3.11 µM
TGI (OVCAR-4 ovarian): 30 µM
GI50 (SW-620 colon): 5.8 µM
TGI (SW-620 colon): 40.8 µM
GI50 (OVCAR-5 ovarian): 2.68 µM
TGI (OVCAR-5 ovarian): 12.8 µM
GI50 (NCI/ADR-RES ovarian): 22.6 µM
TGI (NCI/ADR-RES ovarian): 62.6 µM
GI50 (HOP-92 NSCLC): 1.92 µM
TGI (HOP-92 NSCLC): 7.16 µM
GI50 (786-0 renal): 3.57 µM
TGI (786-0 renal): 78.7 µM
GI50 (SF-295 CNS): 5.09 µM
TGI (SF-295 CNS): 38.9 µM
GI50 (SK-OV-3 ovarian): 15.4 µM
TGI (SK-OV-3 ovarian): 35.7 µM
GI50 (HOP-62 NSCLC): 2.32 µM
TGI (HOP-62 NSCLC): 6.9 µM
GI50 (NCI-H23 lung): 5.07 µM
TGI (NCI-H23 lung): 35.4 µM
GI50 (TK-10 renal): 2.27 µM
TGI (TK-10 renal): 6.48 µM
GI50 (T-47D breast): 7.6 µM
TGI (T-47D breast): 58.9 µM
GI50 (SK-MEL-5 melanoma): 6.59 µM
TGI (SK-MEL-5 melanoma): 45.8 µM
GI50 (SF-539 CNS): 5.48 µM
TGI (SF-539 CNS): 37 µM
GI50 (HCT-15 colon): 17 µM
TGI (HCT-15 colon): 57.4 µM
GI50 (SK-MEL-28 melanoma): 10.4 µM
TGI (SK-MEL-28 melanoma): 45.4 µM
GI50 (MALME-3M melanoma): 14.8 µM
TGI (MALME-3M melanoma): 94 µM
GI50 (SK-MEL-2 melanoma): 12.7 µM
TGI (SK-MEL-2 melanoma): 44.7 µM
GI50 (MDA-MB-435): 10.6 µM
TGI (MDA-MB-435): 55.1 µM
GI50 (NCI-H460 lung): 3.47 µM
TGI (NCI-H460 lung): 52.4 µM
GI50 (MCF7 breast): 3.77 µM
TGI (MCF7 breast): 34.9 µM
GI50 (UACC-257 melanoma): 23.6 µM
TGI (UACC-257 melanoma): 51.6 µM
GI50 (DU-145 prostate): 4.97 µM
TGI (DU-145 prostate): 39.2 µM
GI50 (CAKI-1 renal): 4.39 µM
TGI (CAKI-1 renal): 36.7 µM
GI50 (UACC-62 melanoma): 6.55 µM
TGI (UACC-62 melanoma): 62.5 µM

CN(C)CCCCn1ccc2c1C(=O)c1c(c(O)c3ccccc3c1O)C2=O
GI50 (K-562 leukemia): 1.78 µM
TGI (K-562 leukemia): 4.07 µM
GI50 (LOX IMVI melanoma): 10.4 µM
TGI (LOX IMVI melanoma): 24.2 µM
GI50 (A549 NSCLC): 18.9 µM
TGI (A549 NSCLC): 36.8 µM
GI50 (UO-31 renal): 33 µM
TGI (UO-31 renal): > 100 µM
GI50 (NCI-H522 lung): 33.8 µM
TGI (NCI-H522 lung): > 100 µM
GI50 (ACHN renal): 14.8 µM
TGI (ACHN renal): 27.9 µM
GI50 (SR leukemia): 4.36 µM
TGI (SR leukemia): 23.6 µM
GI50 (SF-268 CNS): 11 µM
TGI (SF-268 CNS): 30.6 µM
GI50 (KM12 colon): 10.4 µM
TGI (KM12 colon): 24.4 µM
GI50 (SNB-75 CNS): 15.8 µM
TGI (SNB-75 CNS): 35.8 µM
GI50 (IGROV1 ovarian): 18.6 µM
TGI (IGROV1 ovarian): > 100 µM
GI50 (OVCAR-3 ovarian): 2.98 µM
TGI (OVCAR-3 ovarian): 15.9 µM
GI50 (COLO 205 colon): 7.05 µM
TGI (COLO 205 colon): 21 µM
GI50 (M14 melanoma): 2.78 µM
TGI (M14 melanoma): 8.7 µM
GI50 (MDA-MB-231 breast): 17 µM
TGI (MDA-MB-231 breast): 95.6 µM
GI50 (PC-3 prostate): 10 µM
TGI (PC-3 prostate): 23.4 µM
GI50 (HCT-116 colon): 9.03 µM
TGI (HCT-116 colon): 21.1 µM
GI50 (SN12C renal): 14.1 µM
TGI (SN12C renal): 28.6 µM
GI50 (HS 578T breast): 33.1 µM
TGI (HS 578T breast): 60.9 µM
GI50 (OVCAR-8 ovarian): 11.5 µM
TGI (OVCAR-8 ovarian): 25.6 µM
GI50 (HT29 colon): 5.53 µM
TGI (HT29 colon): 18.4 µM
GI50 (RPMI-8226 leukemia): 1.74 µM
TGI (RPMI-8226 leukemia): 7.52 µM
GI50 (NCI-H226 lung): 6.56 µM
TGI (NCI-H226 lung): 21.8 µM
GI50 (OVCAR-4 ovarian): 19.6 µM
TGI (OVCAR-4 ovarian): 43.1 µM
GI50 (RXF 393 renal): 2.18 µM
TGI (RXF 393 renal): 8.91 µM
GI50 (OVCAR-5 ovarian): 12.9 µM
TGI (OVCAR-5 ovarian): 25.6 µM
GI50 (NCI/ADR-RES ovarian): 13.3 µM
TGI (NCI/ADR-RES ovarian): 27.5 µM
GI50 (786-0 renal): 12.2 µM
TGI (786-0 renal): 25.3 µM
GI50 (SF-295 CNS): 4.63 µM
TGI (SF-295 CNS): 15.5 µM
GI50 (SK-OV-3 ovarian): 11.4 µM
TGI (SK-OV-3 ovarian): 24 µM
GI50 (HOP-62 NSCLC): 15.8 µM
TGI (HOP-62 NSCLC): 31 µM
GI50 (NCI-H23 lung): 11.2 µM
TGI (NCI-H23 lung): 23.3 µM
GI50 (TK-10 renal): 0.501 µM
TGI (TK-10 renal): 7.73 µM
GI50 (T-47D breast): 3.77 µM
TGI (T-47D breast): 22.8 µM
GI50 (U251 CNS): 17.9 µM
TGI (U251 CNS): 31.7 µM
GI50 (CCRF-CEM leukemia): 1.32 µM
TGI (CCRF-CEM leukemia): 4.54 µM
GI50 (HCT-15 colon): 16 µM
TGI (HCT-15 colon): 29.4 µM
GI50 (SK-MEL-28 melanoma): 14.7 µM
TGI (SK-MEL-28 melanoma): 28.2 µM
GI50 (MDA-MB-435): 2.01 µM
TGI (MDA-MB-435): 3.71 µM
GI50 (NCI-H460 lung): 19.2 µM
TGI (NCI-H460 lung): 36.9 µM
GI50 (MCF7 breast): 11.3 µM
TGI (MCF7 breast): 28.4 µM
GI50 (UACC-257 melanoma): 15.5 µM
TGI (UACC-257 melanoma): 29.5 µM
GI50 (DU-145 prostate): 20.1 µM
TGI (DU-145 prostate): 41.9 µM
GI50 (SNB-19 CNS): 14.6 µM
TGI (SNB-19 CNS): 30.5 µM
GI50 (CAKI-1 renal): 4.02 µM
TGI (CAKI-1 renal): 17.5 µM
GI50 (HL-60(TB) leukemia): 10.4 µM
TGI (HL-60(TB) leukemia): 23.4 µM
